In US20250381131A1, “COMPOSITION AND METHOD FOR INHIBITING ELASTASE ACTIVITY” (ACCESS BUSINESS GROUP INTERNATIONAL LLC, priority 2022, published 2025):
Where “and” joins values, the source holds several entries; their conditions need not be identical. Identical values can stand only once.

Molecular target: Porcine pancreatic elastase (PPE) (Sus scrofa, UniProt P00772)
Assay: Porcine pancreatic elastase (PPE) enzyme inhibitory assay
Type: biochemical
Conditions: for Average % inhibition: average of three; for Inhibition Rate (%): single determination
Experimental: The elastase inhibitory activity of certain plant extracts was evaluated in vitro using Porcine pancreatic elastase (PPE) enzyme inhibitory assay as described by Cannel et al. (1988) with some modifications. The assay was performed in 0.2 M Tris-HCL buffer (pH 8.0). Porcine pancreatic elastase was dissolved to make a 100 unit stock solution in sterile water. The substrate N-Succinyl-Ala-Ala-Ala-p-nitroanilide (AAAPVN) was dissolved in buffer. The plant extracts were incubated with the enzyme for 25 minutes before adding the substrate to begin the reaction. […] EGCG was used as a positive control, and tris-HCl was used as the blank.
Maximum Velocities (Vmax) were taken at a wavelength of 410 nm for 25 minutes at 30 second intervals. Percentage inhibitions were calculated by the following equation: […]
where Vmax(sample) is the velocity of the sample extracts and Vmax(control) is the velocity of the assay using the buffer instead of inhibitor (sample).

Porcine pancreatic elastase (PPE), sequence (P00772 27-266): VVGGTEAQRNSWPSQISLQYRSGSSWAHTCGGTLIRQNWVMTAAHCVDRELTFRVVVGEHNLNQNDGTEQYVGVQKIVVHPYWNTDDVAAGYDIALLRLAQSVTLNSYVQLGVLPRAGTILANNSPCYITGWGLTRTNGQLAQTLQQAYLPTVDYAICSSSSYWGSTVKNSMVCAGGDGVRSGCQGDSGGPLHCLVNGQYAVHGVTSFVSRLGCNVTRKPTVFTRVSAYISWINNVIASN

**Q.** Which results are given for O=C(O[C@@H]1Cc2c(O)cc(O)cc2O[C@@H]1c1cc(O)c(O)c(O)c1)c1cc(O)c(O)c(O)c1 [EGCG, epigallocatechin gallate]?
**A.** Average % inhibition (31.25 μg/ml): 4.80%; Inhibition Rate (%) (31.25 μg/ml): 6.76% and 1.06% and 6.58%; Average % inhibition (62.5 μg/ml): 15.57%; Inhibition Rate (%) (62.5 μg/ml): 20.43% and 14.78% and 11.52%; Average % inhibition (125 μg/ml): 36.25%; Inhibition Rate (%) (125 μg/ml): 39.69% and 35.13% and 33.94%; Average % inhibition (250 μg/ml): 41.56%; Inhibition Rate (%) (250 μg/ml): 45.23% and 41.13% and 38.32%; Average % inhibition (500 μg/ml): 43.47%; Inhibition Rate (%) (500 μg/ml): 45.20% and 41.64% and 43.58%; Average % inhibition (1000 μg/ml): 48.97%; Inhibition Rate (%) (1000 μg/ml): 49.48% and 47.89% and 49.56%; Average % inhibition (2000 μg/ml): 52.78%; Inhibition Rate (%) (2000 μg/ml): 52.32% and 52.75% and 53.28%
